Measured values as given in patent publication US8247351B2, “Insecticidal compositions having improved effect” (Bayer Cropscience AG, priority 2005, dated 2012).

How the values were obtained:
Myzus persicae [1] = experiment: Myzus persicae test, Example C (spraying top side of leaf, ammonium salt plus penetrant); assay type: in vivo; conditions: 120 g/ha active ingredient
Method: (§1) Solvent: 7 parts by weight dimethylformamide
(§2) Emulsifier: 1 part by weight alkylaryl polyglycol ether
(§3) An appropriate preparation of active ingredient is prepared by mixing 1 part by weight of active ingredient with the stated amounts of solvent and emulsifier and diluting the concentrate with water to the desired concentration. Where it is necessary to add ammonium salts, phosphonium salts or penetrant, the appropriate amount is added by pipette, after dilution, to each of the ready prepared product solutions. Single-leaf paprika plants (Capsicum annuum) heavily infested by the green peach aphid (Myzus persicae) are treated by spraying the top side of the leaf (spray volume 600 1/ha) with the preparation of active ingredient at the desired concentration. After the desired time the destruction in % is ascertained. 100% means that all of the animals have been killed; 0% means that no animals have been killed.

Myzus persicae [2] = experiment: Myzus persicae test, Example B (spraying top side of leaf, ammonium salt boosting); assay type: in vivo; conditions: 120 g/ha active ingredient
Method: as §1, §2
as §3, with “ready-prepared” for “ready prepared”

[3] = Penetration of active ingredient through enzymatically isolated apple leaf cuticles (Examples A-1, A-2, A-3); assay type: in vitro ADME, apple trees of the Golden Delicious variety; conditions: 500 ppm in DMF/Emulgator W 7:1 (w/w)
Method: This test measured the penetration of active ingredients through enzymatically isolated cuticles of apple leaves.
The leaves used were cut in the fully developed state from apple trees of the Golden Delicious variety. The cuticles were isolated as follows: • first of all, leaf discs marked on the underside with dye and formed by punching were filled by means of vacuum infiltration with a pectinase solution (0.2% to 2% strength) buffered to a pH of between 3 and 4, • then sodium azide was added and • the leaf discs thus treated were left to stand until the original leaf structure broke down and the non-cellular cuticle underwent detachment.
Thereafter only those cuticles from the top leaf sides that were free from stomata and hairs were used. They were washed a number of times in alternation with water and with a buffer solution of pH 7. The clean cuticles obtained were, finally, applied to Teflon plaques, smoothed with a gentle jet of air, and dried.
In the next step the cuticular membranes obtained in this way were placed in stainless steel diffusion cells (i.e. transport chambers) for the purpose of membrane transport investigations. For these investigations the cuticles were placed centrally using tweezers on the edges of the diffusion cells, which were coated with silicone grease, and sealed with a ring, which was likewise greased. The arrangement had been chosen so that the morphological outer face of the cuticles was directed outwards, in other words to the air, while the original inner side was facing the interior of the diffusion cell.
The diffusion cells were filled with a 30% strength ethylene glycol/water solution. Penetration was determined by applying 10 μl of the spray liquor, whose composition is indicated below, to the outer face of each cuticle. The spray liquor is made up using local tap water of medium hardness.
After the spray liquors had been applied, the water was evaporated and the chambers were then inverted and placed in thermostated troughs in which the temperature and atmospheric humidity above the cuticle was adjustable by means of a gentle stream of air onto the cuticle with the spray coating (20° C., 60% rh). At regular intervals an autosampler took aliquots which were assayed for active ingredient by HPLC.
The figures indicated are average values from 8 to 10 measurements.
Example A-2 was carried out in the same way as in Example A-1.
Example A-3 was carried out in the same way as in Example A-1.

Cc1ccc(-c2ccc(Cl)cc2)c(C)c1C1=C(O)C2(CCOCC2)NC1=O [Ex. I-1-a-2]
Degree of destruction/% after 4 days (Myzus persicae [1]; RME (1 g/l)): 37%
Degree of destruction/% after 4 days (Myzus persicae [1]; RME (1 g/l) + AS (1 g/l)): 92%

CCOC(=O)OC1=C(c2cc(C)ccc2C)C(=O)N[C@]12CC[C@@H](OC)CC2 [Ex. I-1-c-1]
Degree of destruction/% after 3 days (Myzus persicae [2]; AS (ammonium sulphate, 1 g/l)): 67%
Degree of destruction/% after 3 days (Myzus persicae [2]; No AS): 37%

Cc1cc(Cl)cc(C)c1C1=C(O)C2(CCOCC2)NC1=O [Example I-1-a-1]
Penetration after 24 h/% ([3]; Table A-1, EC + AS (ammonium sulphate, 1 g/l)): 2.5%
Penetration after 24 h/% ([3]; Table A-1, EC + RME (1 g/l) + AS (1 g/l)): 41%
Penetration after 24 h/% ([3]; Table A-1, EC + RME (rapeseed oil methyl ester, 1 g/l)): 13.5%
Penetration after 24 h/% ([3]; Table A-1, EC alone, 20° C., 60% rh): 0.6%
Penetration after 24 h/% ([3]; Table A-2, EC + RME (1 g/l) + AT (ammonium thiocyanate, 1 g/l)): 12%
Penetration after 24 h/% ([3]; Table A-2, EC + RME (1 g/l)): 3.5%
Penetration after 24 h/% ([3]; Table A-2, EC alone): <0.2%
Penetration after 24 h/% ([3]; Table A-3, EC + RME (1 g/l) + Ammonium dihydrogen-phosphate (1 g/l)): 42%
Penetration after 24 h/% ([3]; Table A-3, EC + RME (1 g/l) + Diammonium hydrogen-phosphate (1 g/l)): 26%
Penetration after 24 h/% ([3]; Table A-3, EC + RME (1 g/l)): 10%
